A short description of one data set: Ames mutagenesis assay. Format: cell-based. To be noted: to 10 μM (cytotoxicity precluded evaluation of all concentrations).
The subject of data set [1] is hyperactivity induced by amphetamine. In words: Amphetamine induced hyperactivity mouse model. Format: in vivo. The settings on record: mice, salts of the compounds. As to the method: (§1) Five of the compounds listed in Table 2 were tested in an in vivo assay predictive of antipsychotic activity. Salts of these compounds where administered to mice having hyperactivity induced by amphetamine or MK-801 administration. The compounds were administered both subcutaneously (sc) and orally (po).

In a further data set the target is T1, muscarinic M3 receptor (Homo sapiens, UniProt P20309).
T1 construct: expressed in transfected cells
T1 sequence (P20309 whole entry): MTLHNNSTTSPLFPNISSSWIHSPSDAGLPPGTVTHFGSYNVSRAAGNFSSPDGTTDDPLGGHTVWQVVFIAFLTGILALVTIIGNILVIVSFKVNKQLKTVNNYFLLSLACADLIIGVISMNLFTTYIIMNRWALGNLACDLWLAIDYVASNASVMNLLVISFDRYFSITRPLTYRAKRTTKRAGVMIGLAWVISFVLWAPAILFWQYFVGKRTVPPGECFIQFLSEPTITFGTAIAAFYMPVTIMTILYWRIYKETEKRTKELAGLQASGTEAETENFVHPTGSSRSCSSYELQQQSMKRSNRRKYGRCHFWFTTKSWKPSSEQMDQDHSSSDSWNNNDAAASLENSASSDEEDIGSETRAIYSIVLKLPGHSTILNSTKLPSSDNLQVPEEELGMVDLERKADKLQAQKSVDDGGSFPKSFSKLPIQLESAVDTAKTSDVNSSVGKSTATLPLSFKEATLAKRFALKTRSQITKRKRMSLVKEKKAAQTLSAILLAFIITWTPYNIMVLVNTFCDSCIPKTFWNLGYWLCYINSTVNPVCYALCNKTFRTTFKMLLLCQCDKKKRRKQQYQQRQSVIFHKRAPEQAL
Put plainly: R-SAT functional screen, M3. Format: cell-based. The text has this: The term “modulate” refers to the ability of a compound disclosed herein to alter the function of a muscarinic receptor. A modulator may activate the activity of a muscarinic receptor, may activate or inhibit the activity of a muscarinic receptor depending on the concentration of the compound exposed to the muscarinic receptor, or may inhibit the activity of a muscarinic receptor. The term “modulate” also refers to altering the function of a muscarinic receptor by increasing or decreasing the probability that a complex forms between a muscarinic receptor and a natural binding partner. A modulator may increase the probability that such a complex forms between the muscarinic receptor and the natural binding partner, may increase or decrease the probability that a complex forms between the muscarinic receptor and the natural binding partner depending on the concentration of the compound exposed to the muscarinic receptor, and or may decrease the probability that a complex forms between the muscarinic receptor and the natural binding partner. In some embodiments, modulation of the muscarinic receptor may be assessed using Receptor Selection and Amplification Technology (R-SAT) as described in U.S. Pat. No. 5,707,798, the disclosure of which is incorporated herein by reference in its entirety.
Several compounds disclosed herein were evaluated for activity at muscarinic receptors using Receptor Selection and Amplification Technology (R-SAT) as described in U.S. Pat. No. 5,707,798, the disclosure of which is incorporated herein by reference in its entirety. The efficacy (eff) and potency (expressed as pEC50) of these compounds are presented in Table 1 at M1, M2, and M3 receptors.

A further data set deals with CYP 2C19 (Homo sapiens, UniProt P33261). Put plainly: CYP inhibition, 2C19. Format: in vitro ADME.
Sequence of CYP 2C19 (P33261 whole entry): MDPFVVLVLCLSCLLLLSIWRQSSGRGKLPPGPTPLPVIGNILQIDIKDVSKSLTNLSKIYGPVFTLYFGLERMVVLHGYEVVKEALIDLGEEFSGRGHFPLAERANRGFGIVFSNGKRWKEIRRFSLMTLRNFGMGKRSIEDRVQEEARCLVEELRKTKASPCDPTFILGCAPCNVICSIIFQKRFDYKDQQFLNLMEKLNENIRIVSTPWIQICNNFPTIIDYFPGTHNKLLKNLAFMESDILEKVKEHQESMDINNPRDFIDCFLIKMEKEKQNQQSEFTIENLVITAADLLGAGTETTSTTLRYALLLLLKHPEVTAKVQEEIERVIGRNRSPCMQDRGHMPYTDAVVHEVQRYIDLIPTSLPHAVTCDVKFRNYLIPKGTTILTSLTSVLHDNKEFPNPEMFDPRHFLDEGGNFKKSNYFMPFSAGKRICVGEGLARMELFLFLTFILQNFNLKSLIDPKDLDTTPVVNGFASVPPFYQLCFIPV
The next data set concerns the target CYP 2C9 (Homo sapiens, UniProt P11712). Put plainly: CYP inhibition, 2C9. The class given is in vitro ADME.
The target in a further data set is CYP 2D6 (Homo sapiens, UniProt P10635). Put plainly: CYP inhibition, 2D6. Format: in vitro ADME.
Sequence of CYP 2D6 (P10635 whole entry): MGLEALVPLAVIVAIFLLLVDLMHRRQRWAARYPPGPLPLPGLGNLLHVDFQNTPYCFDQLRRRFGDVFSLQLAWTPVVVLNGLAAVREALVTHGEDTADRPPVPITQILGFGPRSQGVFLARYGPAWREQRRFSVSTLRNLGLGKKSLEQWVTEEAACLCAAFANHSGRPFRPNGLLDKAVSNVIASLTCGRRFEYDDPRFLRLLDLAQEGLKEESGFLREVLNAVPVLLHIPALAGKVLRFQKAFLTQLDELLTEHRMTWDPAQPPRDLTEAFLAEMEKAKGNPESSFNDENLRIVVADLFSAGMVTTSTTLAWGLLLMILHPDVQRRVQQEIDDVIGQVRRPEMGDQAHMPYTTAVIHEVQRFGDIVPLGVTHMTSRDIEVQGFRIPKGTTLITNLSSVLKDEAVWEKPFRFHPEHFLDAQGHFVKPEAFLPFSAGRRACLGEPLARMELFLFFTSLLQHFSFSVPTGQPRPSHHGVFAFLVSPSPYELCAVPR
In another data set the target is CYP 3A4 (Homo sapiens, UniProt P08684). Put plainly: biochemical. Here is the method: The compounds listed in Table 4 were profiled in a panel of in vitro assays for assessment of cardiovascular (hERG), drug-drug interaction (CYP inhibition), and mutagenic (Ames) liability. Microsomal stability was also determined by measuring both rat and human microsomal clearance.
Sequence of CYP 3A4 (P08684 whole entry): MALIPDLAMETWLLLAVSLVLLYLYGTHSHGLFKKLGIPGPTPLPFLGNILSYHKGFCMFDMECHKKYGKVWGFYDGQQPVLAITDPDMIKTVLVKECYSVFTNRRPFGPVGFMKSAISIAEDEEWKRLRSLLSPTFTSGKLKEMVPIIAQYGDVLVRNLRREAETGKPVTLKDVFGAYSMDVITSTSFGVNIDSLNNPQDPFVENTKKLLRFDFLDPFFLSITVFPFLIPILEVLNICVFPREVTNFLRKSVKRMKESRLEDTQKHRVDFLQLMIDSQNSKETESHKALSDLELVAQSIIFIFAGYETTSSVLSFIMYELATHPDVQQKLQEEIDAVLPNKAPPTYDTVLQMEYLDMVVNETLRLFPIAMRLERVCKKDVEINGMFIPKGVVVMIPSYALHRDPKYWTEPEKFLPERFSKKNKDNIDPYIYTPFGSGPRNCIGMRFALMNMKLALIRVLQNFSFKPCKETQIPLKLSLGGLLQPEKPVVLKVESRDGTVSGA

The subject of the next data set is novel object recognition. Put plainly: Novel object recognition (NOR) assay. The settings on record: mice; for NOR - 60 minutes post training / NOR - 120 minutes post training: dose approx. ID75 in MK-801 hyperactivity assay. Format: in vivo. Here is the method:
Salts of the compounds were administered to mice at one hour post-training (a time-point at which animals normally behaviorally discriminate between novel and familiar objects) and two hours post-training (a time-point at which these animals normally no longer discriminate between objects). Doses were selected to correspond to the approximate ID75 value in the MK-801 hyperactivity assay.

A further data set has as its target T2, M1 receptor (Homo sapiens, UniProt P11229).
T2 sequence (P11229 1-460): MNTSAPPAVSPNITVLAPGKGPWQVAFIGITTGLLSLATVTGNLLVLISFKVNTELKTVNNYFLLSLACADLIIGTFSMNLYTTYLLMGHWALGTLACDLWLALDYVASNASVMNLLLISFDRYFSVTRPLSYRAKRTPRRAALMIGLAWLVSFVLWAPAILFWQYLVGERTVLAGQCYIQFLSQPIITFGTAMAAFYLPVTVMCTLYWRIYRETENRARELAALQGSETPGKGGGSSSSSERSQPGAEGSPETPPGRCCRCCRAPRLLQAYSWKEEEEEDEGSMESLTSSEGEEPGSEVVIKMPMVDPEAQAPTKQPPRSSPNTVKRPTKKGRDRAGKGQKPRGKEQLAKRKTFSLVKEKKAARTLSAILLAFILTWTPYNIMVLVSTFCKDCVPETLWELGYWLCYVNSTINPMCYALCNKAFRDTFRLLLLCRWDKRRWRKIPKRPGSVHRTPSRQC
Put plainly: Receptor profile, M1 agonist activity. To be noted: for Emax: read-out: M1 intrinsic activity %.

The target in another data set is T3, muscarinic M1 receptor (Homo sapiens, UniProt P11229).
T3 construct: expressed in transfected cells
T3 sequence (P11229 1-460): T2 sequence (P11229 1-460)
In words: R-SAT functional screen, M1. The class given is cell-based. To be noted: R-SAT. In a few lines:
(§2)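 Receptor Selection and Amplification Technology (R-SAT) functional cell assay at M1, M2, M3 receptors. Values reported as efficacy (eff) and potency as pEC50.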

For another data set, the target named is hERG (Homo sapiens, UniProt Q12809). In words: hERG assay.
Sequence of hERG (Q12809 whole entry): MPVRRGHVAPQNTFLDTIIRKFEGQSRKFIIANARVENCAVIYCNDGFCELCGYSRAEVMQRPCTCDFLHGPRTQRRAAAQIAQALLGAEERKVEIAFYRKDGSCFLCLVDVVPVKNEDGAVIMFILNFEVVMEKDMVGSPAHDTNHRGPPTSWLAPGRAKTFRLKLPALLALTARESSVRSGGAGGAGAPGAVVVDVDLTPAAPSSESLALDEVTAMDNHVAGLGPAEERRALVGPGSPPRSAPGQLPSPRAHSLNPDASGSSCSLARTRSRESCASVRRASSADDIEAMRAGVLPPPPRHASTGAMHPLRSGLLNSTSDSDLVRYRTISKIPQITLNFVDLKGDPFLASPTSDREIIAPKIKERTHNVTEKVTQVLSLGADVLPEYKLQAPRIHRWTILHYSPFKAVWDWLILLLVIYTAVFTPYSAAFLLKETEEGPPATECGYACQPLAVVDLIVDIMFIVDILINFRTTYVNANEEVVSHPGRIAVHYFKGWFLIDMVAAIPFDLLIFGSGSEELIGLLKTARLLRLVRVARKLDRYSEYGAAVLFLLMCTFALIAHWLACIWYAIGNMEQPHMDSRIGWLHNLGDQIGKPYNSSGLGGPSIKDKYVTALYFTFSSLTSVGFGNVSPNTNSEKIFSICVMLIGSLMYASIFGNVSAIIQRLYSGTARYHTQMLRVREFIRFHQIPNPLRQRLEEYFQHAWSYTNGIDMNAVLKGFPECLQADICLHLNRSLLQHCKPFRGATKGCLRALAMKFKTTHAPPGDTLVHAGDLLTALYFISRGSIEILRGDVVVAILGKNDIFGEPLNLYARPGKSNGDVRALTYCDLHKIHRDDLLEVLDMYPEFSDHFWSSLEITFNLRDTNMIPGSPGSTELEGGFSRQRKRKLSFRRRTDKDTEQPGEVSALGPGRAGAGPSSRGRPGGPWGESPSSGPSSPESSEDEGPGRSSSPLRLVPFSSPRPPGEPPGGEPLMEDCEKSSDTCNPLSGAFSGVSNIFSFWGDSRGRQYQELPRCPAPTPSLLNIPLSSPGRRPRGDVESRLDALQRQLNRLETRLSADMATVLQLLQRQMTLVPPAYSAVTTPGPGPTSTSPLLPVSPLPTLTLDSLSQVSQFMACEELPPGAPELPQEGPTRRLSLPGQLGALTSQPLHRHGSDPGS
The next data set addresses D2 receptor (Homo sapiens, UniProt P14416). In words: Receptor profile, D2 agonist activity.
Another data set has as its target 5-HT2A receptor (Homo sapiens, UniProt P28223). In words: Receptor profile, 5-HT2A inverse agonism. The settings on record: negative log of the inhibitory IC50 (inverse agonism); read-out: 5-HT2A pIEC50 (converted). Format: cell-based.
The nature of another data set: Rat microsomal clearance. The class given is in vitro ADME. To be noted: rat microsomes.
The next data set addresses T4, CYP 1A2 (Homo sapiens, UniProt P05177).
T4 sequence (P05177 1-516): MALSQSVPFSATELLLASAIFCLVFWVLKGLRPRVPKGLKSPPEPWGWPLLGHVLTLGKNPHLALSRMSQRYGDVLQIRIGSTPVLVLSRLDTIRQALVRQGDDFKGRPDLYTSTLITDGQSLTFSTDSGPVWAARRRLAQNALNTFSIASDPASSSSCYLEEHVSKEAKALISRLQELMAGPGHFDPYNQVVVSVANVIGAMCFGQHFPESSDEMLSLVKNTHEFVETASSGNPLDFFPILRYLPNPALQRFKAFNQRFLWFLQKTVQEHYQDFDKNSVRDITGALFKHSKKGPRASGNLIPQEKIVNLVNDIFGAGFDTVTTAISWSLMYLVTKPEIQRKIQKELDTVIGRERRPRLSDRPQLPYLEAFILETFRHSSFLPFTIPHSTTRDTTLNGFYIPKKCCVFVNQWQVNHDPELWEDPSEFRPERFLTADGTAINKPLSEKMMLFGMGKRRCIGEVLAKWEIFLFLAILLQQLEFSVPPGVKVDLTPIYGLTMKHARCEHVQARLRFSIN
In words: CYP inhibition, 1A2. Format: in vitro ADME.

Data set [2] is described as follows: Human microsomal clearance. The settings on record: human microsomes. Format: in vitro ADME.
Data set [3] relates to hyperactivity induced by MK-801. Put plainly: MK-801 induced hyperactivity mouse model. The class given is in vivo. The settings on record: mice, salts of the compounds. As to the method: as §1
In another data set the target is T5, muscarinic M2 receptor (Homo sapiens, UniProt P08172).
T5 construct: expressed in transfected cells
T5 sequence (P08172 1-466): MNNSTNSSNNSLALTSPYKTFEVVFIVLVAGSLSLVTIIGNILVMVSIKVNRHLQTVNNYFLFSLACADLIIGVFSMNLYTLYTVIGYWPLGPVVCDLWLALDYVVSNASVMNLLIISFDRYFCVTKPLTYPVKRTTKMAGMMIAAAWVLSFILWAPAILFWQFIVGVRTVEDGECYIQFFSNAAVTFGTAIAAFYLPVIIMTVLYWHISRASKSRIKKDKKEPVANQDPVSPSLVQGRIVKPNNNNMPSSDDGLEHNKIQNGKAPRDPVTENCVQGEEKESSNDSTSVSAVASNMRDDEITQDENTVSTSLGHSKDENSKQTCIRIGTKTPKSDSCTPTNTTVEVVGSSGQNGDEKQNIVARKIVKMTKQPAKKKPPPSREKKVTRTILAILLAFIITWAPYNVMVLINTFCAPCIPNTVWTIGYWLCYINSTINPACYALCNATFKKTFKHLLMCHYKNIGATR
Put plainly: R-SAT functional screen, M2. Format: cell-based. To be noted: R-SAT; for Emax: read-out: M2 eff (efficacy); for EC50: read-out: M2 pEC50 (converted). In a few lines:
as §2

Molecules are shown by their SMILES. A value given as a limit tells only on which side of the number the result lay.

Sequence of D2 receptor (P14416 whole entry): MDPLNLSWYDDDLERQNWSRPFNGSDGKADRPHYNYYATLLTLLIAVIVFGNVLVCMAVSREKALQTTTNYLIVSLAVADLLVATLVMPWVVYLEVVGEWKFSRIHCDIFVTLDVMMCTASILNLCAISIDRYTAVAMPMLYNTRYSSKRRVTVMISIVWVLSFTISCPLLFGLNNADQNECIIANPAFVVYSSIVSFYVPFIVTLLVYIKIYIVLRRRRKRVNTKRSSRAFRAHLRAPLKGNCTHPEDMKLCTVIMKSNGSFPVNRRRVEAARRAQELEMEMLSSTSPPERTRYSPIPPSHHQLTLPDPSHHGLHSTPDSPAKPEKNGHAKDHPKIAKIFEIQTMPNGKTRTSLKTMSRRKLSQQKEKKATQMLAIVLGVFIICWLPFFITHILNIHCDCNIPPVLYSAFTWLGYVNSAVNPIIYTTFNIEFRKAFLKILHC
Sequence of CYP 2C9 (P11712 whole entry): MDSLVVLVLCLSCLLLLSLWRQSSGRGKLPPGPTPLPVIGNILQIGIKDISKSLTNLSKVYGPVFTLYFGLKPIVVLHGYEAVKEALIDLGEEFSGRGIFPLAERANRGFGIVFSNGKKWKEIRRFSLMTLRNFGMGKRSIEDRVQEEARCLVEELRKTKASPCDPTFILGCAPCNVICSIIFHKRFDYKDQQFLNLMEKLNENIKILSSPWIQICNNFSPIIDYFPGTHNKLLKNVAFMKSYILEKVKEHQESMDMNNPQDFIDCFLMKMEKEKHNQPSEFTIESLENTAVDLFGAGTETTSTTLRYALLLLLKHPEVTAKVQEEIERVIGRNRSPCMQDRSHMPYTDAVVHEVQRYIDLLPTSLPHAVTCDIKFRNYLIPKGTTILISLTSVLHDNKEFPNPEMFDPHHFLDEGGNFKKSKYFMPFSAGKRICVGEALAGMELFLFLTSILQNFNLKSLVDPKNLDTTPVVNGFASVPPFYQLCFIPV
Sequence of 5-HT2A receptor (P28223 whole entry): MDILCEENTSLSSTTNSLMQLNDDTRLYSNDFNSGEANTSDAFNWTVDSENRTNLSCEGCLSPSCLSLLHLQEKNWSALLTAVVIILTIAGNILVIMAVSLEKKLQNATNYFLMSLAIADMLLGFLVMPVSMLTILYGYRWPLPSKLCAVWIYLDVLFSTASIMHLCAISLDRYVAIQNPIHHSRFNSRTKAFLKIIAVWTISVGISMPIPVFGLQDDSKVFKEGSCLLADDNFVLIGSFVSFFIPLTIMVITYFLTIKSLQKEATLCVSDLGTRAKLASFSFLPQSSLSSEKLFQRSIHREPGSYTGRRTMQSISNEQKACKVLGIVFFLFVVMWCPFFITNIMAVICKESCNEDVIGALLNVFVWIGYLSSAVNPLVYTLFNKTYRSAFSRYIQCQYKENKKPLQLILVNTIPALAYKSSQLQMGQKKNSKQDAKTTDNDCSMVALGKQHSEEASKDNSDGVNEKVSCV
Text for D2 receptor: Intrinsic activity was normalized to carbachol (M1) or pergolide (D2). For those ligands devoid of agonist activity, the values shown are pKi determined using [3H]raclopride.

By microsomal CLint is commonly meant the capacity of the preparation to metabolise the compound, expressed as a volume cleared per time. Low values mean slow turnover, high ones rapid turnover. For `CN1c2ccc(Cl)cc2N=C(N2CCNCC2)c2ccccc21` [8-Chloro-5-methyl-11-(piperazin-1-yl)-5H-dibenzo[b,e][1,4]diazepine], the Ames result in “Ames mutagenesis assay” was “Neg”. The “Amphetamine model (ID50 mg/kg po)” value in data set [1] was above 10 mg/kg. In addition, the “Amphetamine model (ID50 mg/kg sc)” value in data set [1] amounted to 6.0 mg/kg. Also, the “M3 eff (efficacy)” value on muscarinic M3 receptor was 14. Further, the IC50 against CYP 2C19 is above 10 µM; against CYP 2C9, above 10 µM; on CYP 2D6 it was above 10 µM; at CYP 3A4, 0.4 µM; at hERG, 1.3 µM; at 5-HT2A receptor it was above 10 µM. This compound also displayed an IC50 at CYP 1A2 above 10 µM. In addition, in the data set on novel object recognition, the “NOR Interpretation” value is “no effect”. In the data set with novel object recognition, the “NOR - 60 minutes post training” value is reported as “retained”. Besides, the “NOR - 120 minutes post training” value in the data set with novel object recognition is recorded as “not retained”. Moreover, the EC50 was 0.0794 µM on M1 receptor, 0.0794 µM on muscarinic M1 receptor (read-out: M1 pEC50 (converted)), 0.0158 µM on D2 receptor and 1.26 µM at muscarinic M2 receptor. Further, the Emax at M1 receptor is 65%; at muscarinic M1 receptor (read-out: M1 eff (efficacy)) it was 65%; on D2 receptor (read-out: D2 intrinsic activity %) it was 29%; on muscarinic M2 receptor, 138%. In addition, the microsomal CLint was 1090 µL/min/mg in “Rat microsomal clearance” and 23 µL/min/mg in data set [2]. Also, in data set [3], the “MK-801 model (ID50 mg/kg sc)” value worked out at 1.5 mg/kg.
Take `Cc1cccc2c1Oc1ccc(F)cc1N=C2N1CCNCC1` [8-Fluoro-4-methyl-11-(piperazin-1-yl)-dibenzo[b,f][1,4]oxazepine]: the Ames entry in “Ames mutagenesis assay” is “Neg”. Moreover, in data set [1], the “Amphetamine model (ID50 mg/kg po)” value came out at 2.8 mg/kg. Besides, the “Amphetamine model (ID50 mg/kg sc)” value in data set [1] was 3.3 mg/kg. For the same compound, the IC50 against CYP 2C19 is above 25 µM; against CYP 2C9, above 25 µM; at CYP 2D6, above 25 µM; on CYP 3A4, around 1.5 µM; on hERG, 2.3 µM; on 5-HT2A receptor it was 0.126 µM. The IC50 at CYP 1A2 was 1 µM. Further, in the data set with novel object recognition, the “NOR Interpretation” value is “procognitive”. In the data set with novel object recognition, the “NOR - 60 minutes post training” value is “retained”. In addition, the “NOR - 120 minutes post training” value in the data set with novel object recognition is given as “retained”. In addition, the EC50 was 0.126 µM at M1 receptor and 1.58 µM at muscarinic M2 receptor. In addition, the Emax came to 56% on M1 receptor and 50% at muscarinic M2 receptor. Besides, the “D2 intrinsic activity, in words” value at D2 receptor (devoid of agonist activity) is recorded as “antagonist”. For the same compound, the microsomal CLint in the data set “Rat microsomal clearance” came out at 247 µL/min/mg; in data set [2] it was 13 µL/min/mg. Besides, the “MK-801 model (ID50 mg/kg po)” value in [3] (po) was 0.6 mg/kg. In data set [3], the “MK-801 model (ID50 mg/kg sc)” value was 1.4 mg/kg.

The values above are taken from patent publication US20090239840A1, “AMINO SUBSTITUTED DIARYL[a,d]CYCLOHEPTENE ANALOGS AS [sequence] AGONISTS AND METHODS OF TREATMENT OF NEUROPSYCHIATRIC DISORDERS” (ACADIA PHARMACEUTICALS, INC., priority 2003, published 2009).
